Data reported in patent US12544375B2, “Small molecule therapeutic for parkinson's disease paired with a biomarker of therapeutic activity” (The Board of Trustees of the Leland Stanford Junior …, priority 2019, dated 2026).

Target: T1, Miro1 (Homo sapiens, UniProt Q8IXI2)
T1 construct: We applied compound 3 to fibroblasts from one sporadic PD patient (PD-2); endogenous in cells; host or cells: human skin fibroblasts (PD-2, Healthy-1 and further PD/control lines)
Test: GTPase activity of Miro1 IPed from fibroblasts
Format: biochemical
Conditions: PD-2 fibroblasts, basal or depolarized condition
Description: FIG. 8. Related to FIG. 2-4. Miro1 Reducer in Human Cell and Fly Models. (A) Fibroblasts from Healthy-1 and PD-2 were treated, lysed, and blotted as indicated. Band intensities are normalized to those of GAPDH from the same blots and compared to “Healthy-1, no treatment”. n=4 independent experiments. (B) Fibroblasts from PD-2 were treated and immunostained as indicated. The intensity was quantified for each cell across 264-320 cells from 3 independent experiments, compared to “no treatment”. (C) Fibroblasts were treated, immunoprecipitated (IPed) with anti-Miro1, and blotted as indicated. Similar results were observed twice. (D) Similar as in (C), fibroblasts were treated as indicated, and IPed with anti-Miro1. The GTPase activity of the IPed Miro1 protein was measured as described in Method. […] The MitoSox intensity was quantified for each cell across 106-161 cells from 3 coverslips. […] The TMRM intensity was measured for each cell across 48-60 cells from 3 independent experiments, and expressed as a fraction of the mean of “Healthy-1, no treatment”. […] The movement (the intensity of non-yellow) was quantified for each cell as described in (Tsai et al., 2014) across 22-31 cells from 3 transfections. […] (1) Left: The percentage of TH-positive iPSC-derived neurons out of total cells (Dapi-positive) is calculated after immunocytochemistry under 20× as described in FIG. 3. […]

T1 sequence (Q8IXI2 whole entry): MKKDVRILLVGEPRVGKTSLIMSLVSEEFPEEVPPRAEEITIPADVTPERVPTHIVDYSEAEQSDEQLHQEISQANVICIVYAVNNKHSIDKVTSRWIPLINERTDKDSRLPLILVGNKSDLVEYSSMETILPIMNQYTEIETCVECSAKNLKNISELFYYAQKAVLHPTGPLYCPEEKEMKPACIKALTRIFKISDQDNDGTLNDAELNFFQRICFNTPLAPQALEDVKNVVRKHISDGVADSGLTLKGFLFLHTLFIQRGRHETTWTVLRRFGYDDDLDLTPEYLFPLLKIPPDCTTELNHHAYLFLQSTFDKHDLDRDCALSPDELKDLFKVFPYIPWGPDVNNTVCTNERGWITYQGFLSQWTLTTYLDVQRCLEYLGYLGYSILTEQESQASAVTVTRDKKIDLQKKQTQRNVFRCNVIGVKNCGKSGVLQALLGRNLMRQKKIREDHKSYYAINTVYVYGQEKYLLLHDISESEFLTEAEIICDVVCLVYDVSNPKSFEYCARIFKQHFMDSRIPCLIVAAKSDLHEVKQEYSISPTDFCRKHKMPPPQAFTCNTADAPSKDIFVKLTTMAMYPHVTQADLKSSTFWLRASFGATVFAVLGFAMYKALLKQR

## O=C(Nc1ccc(Nc2cc(-n3ccnc3)ncn2)cc1)Nc1cccc(F)c1 [Miro1 Reducer]
  GTPase activity of IPed Miro1: did not affect
